From PubChem BioAssay AID328 (DTP/NCI, 2004) come the findings set out here.

For the experiment, the system named is BDF1 mice, P388 leukemia ip, median survival T/C. The experiment can be described thus: NCI In Vivo Anticancer Drug Screen. Data for tumor model P388 Leukemia (intraperitoneal) in B6D2F1 (BDF1) mice. Conditions: endpoint: median survival time, higher = longer survival. Put shortly:
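T/C = treated-group survival ÷ vehicle-control survival; tumour transplanted into mice before dosing.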

The mark [1] stands for this setting: dose: 25.0 mg/kg/injection, schedule: Q01DX009 (ip), vehicle: saline with Tween-80.
[2] abbreviates: dose: 50.0 mg/kg/injection, schedule: Q01DX009 (ip), vehicle: saline with Tween-80.
[3] abbreviates: dose: 50.0 mg/kg/injection, schedule: Q04DX003 (ip), vehicle: saline with Tween-80.
Setting [4] is: dose: 100.0 mg/kg/injection, schedule: Q04DX003 (ip), vehicle: saline with Tween-80.
Where [5] appears, read: dose: 200.0 mg/kg/injection, schedule: Q04DX003 (ip), vehicle: saline with Tween-80.
[6] abbreviates: dose: 400.0 mg/kg/injection, schedule: Q04DX003 (ip), vehicle: saline with Tween-80.
The mark [7] stands for this setting: dose: 100.0 mg/kg/injection, schedule: Q04DX003 (ip), vehicle: Klucel (hydroxypropylcellulose) (HPC).
Where [8] appears, read: dose: 150.0 mg/kg/injection, schedule: Q04DX003 (ip), vehicle: Klucel (hydroxypropylcellulose) (HPC).
Where [9] appears, read: dose: 264.0 mg/kg/injection, schedule: Q04DX003 (ip), vehicle: saline with Tween-80.
The mark [10] stands for this setting: dose: 100.0 mg/kg/injection, schedule: Q01DX009 (ip), vehicle: saline with Tween-80.
[11] abbreviates: dose: 50.0 mg/kg/injection, schedule: Q01DX009 (ip), vehicle: saline.
Where [12] appears, read: dose: 100.0 mg/kg/injection, schedule: Q01DX009 (ip), vehicle: saline.

Values joined by “and” are separate entries in the source; they are usually repeats but may differ in a detail not shown here. Equal values may be shown once. Toxic doses and inconclusive results are not listed.

Consider `CCOC(=O)c1c(N)[nH]c(SSc2[nH]c(N)c(C(=O)OCC)c2C(=O)OCC)c1C(=O)OCC`, for which the T/C is 92 % of control under setting [1]; 108 % of control under setting [2]; 109 % of control under setting [3]; 109 % of control under setting [4]; 114 % of control under setting [5]; 109 % of control under setting [6].

For `CC(=O)Nc1cccc(N(CCOS(C)(=O)=O)CCOS(C)(=O)=O)c1`, the T/C is, setting by setting: (dose: 13.0 mg/kg/injection, schedule: Q04DX003 (ip), vehicle: saline sonified) 95 % of control; (dose: 20.0 mg/kg/injection, schedule: Q04DX003 (ip), vehicle: saline sonified) 95 % of control; (dose: 30.0 mg/kg/injection, schedule: Q04DX003 (ip), vehicle: saline sonified) 100 % of control.

As to `O=c1[nH]c(=O)[nH]c(=O)[nH]1`, the T/C is 120 % of control (dose: 75.0 mg/kg/injection, schedule: Q01DX009 (ip), vehicle: Klucel (hydroxypropylcellulose) (HPC)); 120 % of control (dose: 150.0 mg/kg/injection, schedule: Q01DX009 (ip), vehicle: Klucel (hydroxypropylcellulose) (HPC)); 110 % of control (dose: 300.0 mg/kg/injection, schedule: Q01DX009 (ip), vehicle: Klucel (hydroxypropylcellulose) (HPC)).

Regarding `O=[N+]([O-])c1ccccc1NC1c2ccccc2Oc2ccccc21`, the T/C reads like this: under setting [7], 116 % of control; (dose: 200.0 mg/kg/injection, schedule: Q04DX003 (ip), vehicle: Klucel (hydroxypropylcellulose) (HPC)) 122 % of control; (dose: 400.0 mg/kg/injection, schedule: Q04DX003 (ip), vehicle: Klucel (hydroxypropylcellulose) (HPC)) 122 % of control.

Regarding `CN=C(c1ccc(NC(=O)c2ccc(C(=O)Nc3ccc(C(=NC)N(C)C)cc3)cc2)cc1)N(C)C`, the T/C runs as follows: (dose: 2.0 mg/kg/injection, schedule: Q01DX010 (ip), vehicle: water) 110 % of control; (dose: 4.0 mg/kg/injection, schedule: Q01DX010 (ip), vehicle: water) 115 % of control.

Take `CC(C)(CBr)C(=O)N1CCN(C(=O)C(C)(C)CBr)CC1`: the T/C reads like this: (dose: 20.0 mg/kg/injection, schedule: Q04DX003 (ip), vehicle: Klucel (hydroxypropylcellulose) (HPC)) 150 % of control; (dose: 30.0 mg/kg/injection, schedule: Q04DX003 (ip), vehicle: Klucel (hydroxypropylcellulose) (HPC)) 159 % of control and 163 % of control; (dose: 44.0 mg/kg/injection, schedule: Q04DX003 (ip), vehicle: Klucel (hydroxypropylcellulose) (HPC)) 163 % of control and 165 % of control; under setting [7], 195 % of control and 200 % of control; under setting [8], 175 % of control.

Take `CCOP(=S)(N1CC1(C)C)N1CC1(C)C` (configuration not stated): the T/C under setting [9] is 229 % of control.

As for `C[C@@H]1CN(C(=O)CCOS(C)(=O)=O)[C@@H](C)CN1C(=O)CCOS(C)(=O)=O`, the T/C was 166 % of control under setting [3]; 272 % of control under setting [10]; 208 % of control under setting [4]; 104 % of control (dose: 200.0 mg/kg/injection, schedule: Q01DX009 (ip), vehicle: saline with Tween-80); 172 % of control under setting [5]; 233 % of control under setting [9]. Besides, the T/C under setting [6] is 250 % of control and 272 % of control.

For `CC1=CC(=O)NC1=O`, the T/C reads like this: (dose: 4.3 mg/kg/injection, schedule: Q01DX009 (ip), vehicle: saline) 114 % of control; (dose: 6.4 mg/kg/injection, schedule: Q01DX009 (ip), vehicle: saline) 102 % of control; (dose: 9.6 mg/kg/injection, schedule: Q01DX009 (ip), vehicle: saline) 117 % of control; (dose: 14.0 mg/kg/injection, schedule: Q01DX009 (ip), vehicle: saline) 123 % of control.

With `CNC(=S)N/N=C(\C)c1snc(C)c1Br`, the T/C was 94 % of control under setting [1], 103 % of control under setting [2] and 96 % of control under setting [10].

Take `CC(C)(C)CC(C)(C)c1ccc(OCCOc2ccccc2NC(=O)CC(=O)c2cccc([N+](=O)[O-])c2)cc1`: the T/C was 95 % of control (dose: 100.0 mg/kg/injection, schedule: Q01DX001 (ip), vehicle: Klucel (hydroxypropylcellulose) (HPC)); 95 % of control (dose: 200.0 mg/kg/injection, schedule: Q01DX001 (ip), vehicle: Klucel (hydroxypropylcellulose) (HPC)); 95 % of control (dose: 400.0 mg/kg/injection, schedule: Q01DX001 (ip), vehicle: Klucel (hydroxypropylcellulose) (HPC)).

With `CC(C)(O)c1cc(Cl)ccc1Sc1ccccc1`, the T/C was 105 % of control under setting [4], 91 % of control under setting [5] and 108 % of control under setting [6].

On to `OCCc1ccccc1`, for which the T/C (dose: 100.0 mg/kg/injection, schedule: Q01DX009 (ip), vehicle: saline sonified) was 100 % of control and the T/C (dose: 200.0 mg/kg/injection, schedule: Q01DX009 (ip), vehicle: saline sonified) was 100 % of control.

Take `C=CC(=O)NC1CCCCC1`: the T/C (dose: 50.0 mg/kg/injection, schedule: Q04DX003 (ip), vehicle: Klucel (hydroxypropylcellulose) (HPC)) was 90 % of control; the T/C (dose: 75.0 mg/kg/injection, schedule: Q04DX003 (ip), vehicle: Klucel (hydroxypropylcellulose) (HPC)) is 104 % of control; the T/C under setting [8] is 104 % of control.

For `N#CN(Cc1ccc(Cl)cc1Cl)C(=O)OCOc1ccc(Cl)cc1`, the T/C under setting [4] was 100 % of control, the T/C under setting [5] is 90 % of control and the T/C under setting [6] is 109 % of control.

For the compound `C1CCNCC1.COc1ccccc1C(=O)[CH-]C(=O)C(F)(F)F.COc1ccccc1C(=O)[CH-]C(=O)C(F)(F)F.COc1ccccc1C(=O)[CH-]C(=O)C(F)(F)F.COc1ccccc1C(=O)[CH-]C(=O)C(F)(F)F.[Eu+3]`, the T/C under setting [11] is 88 % of control and the T/C under setting [12] is 119 % of control.

Consider `O=c1[nH]cnc2c1ncn2C1OC(CO)C(O)C1O` (configuration not stated), for which the T/C is, setting by setting: under setting [12], 99 % of control; (dose: 200.0 mg/kg/injection, schedule: Q01DX009 (ip), vehicle: saline) 100 % of control; (dose: 400.0 mg/kg/injection, schedule: Q01DX009 (ip), vehicle: saline) 103 % of control.

In the case of `ClC1OCCOC1Cl` (configuration not stated), the T/C is, setting by setting: (dose: 25.0 mg/kg/injection, schedule: Q01DX009 (ip), vehicle: saline) 96 % of control; under setting [11], 100 % of control; (dose: 50.0 mg/kg/injection, schedule: Q04DX003 (ip), vehicle: saline) 105 % of control; (dose: 100.0 mg/kg/injection, schedule: Q04DX003 (ip), vehicle: saline) 110 % of control.

With `CN(c1ccccc1)c1nc(=O)c2cc3ccc(=O)oc3cc2o1`, the T/C is, setting by setting: (dose: 100.0 mg/kg/injection, schedule: Q04DX002 (ip), vehicle: saline with Tween-80) 99 % of control; (dose: 200.0 mg/kg/injection, schedule: Q04DX002 (ip), vehicle: saline with Tween-80) 109 % of control; (dose: 400.0 mg/kg/injection, schedule: Q04DX002 (ip), vehicle: saline with Tween-80) 100 % of control.

Consider `CCOC(=O)C(C)NC(=O)N(C)C12CC3CC(CC(C3)C1)C2` (configuration not stated), for which the T/C (dose: 100.0 mg/kg/injection, schedule: Q01DX009 (ip), vehicle: Klucel (hydroxypropylcellulose) (HPC)) was 113 % of control; the T/C (dose: 200.0 mg/kg/injection, schedule: Q01DX009 (ip), vehicle: Klucel (hydroxypropylcellulose) (HPC)) is 117 % of control; the T/C (dose: 400.0 mg/kg/injection, schedule: Q01DX009 (ip), vehicle: Klucel (hydroxypropylcellulose) (HPC)) is 119 % of control.

Consider `CSc1cc(-c2ccc(Cl)cc2)s[s+]1`, for which the T/C was 104 % of control (dose: 3.12 mg/kg/injection, schedule: Q04DX003 (ip), vehicle: saline with Tween-80); 110 % of control (dose: 6.25 mg/kg/injection, schedule: Q01DX009 (ip), vehicle: saline with Tween-80); 111 % of control (dose: 6.25 mg/kg/injection, schedule: Q04DX003 (ip), vehicle: saline with Tween-80); 89 % of control (dose: 12.5 mg/kg/injection, schedule: Q01DX009 (ip), vehicle: saline with Tween-80); 109 % of control (dose: 12.5 mg/kg/injection, schedule: Q04DX003 (ip), vehicle: saline with Tween-80); 100 % of control under setting [1]. Moreover, the T/C is, setting by setting: (dose: 25.0 mg/kg/injection, schedule: Q04DX003 (ip), vehicle: saline with Tween-80) 108 % of control; under setting [2], 91 % of control; under setting [3], 94 % of control.

With `CCOC(=O)/C=C/C(C(=O)OCC)C(=O)OCC`, the T/C was 95 % of control (dose: 75.0 mg/kg/injection, schedule: Q04DX003 (ip), vehicle: saline with Tween-80) and 120 % of control (dose: 150.0 mg/kg/injection, schedule: Q04DX003 (ip), vehicle: saline with Tween-80).
